The values below come from patent US20190175534A1, “PHARMACEUTICAL COMPOSITIONS COMPRISING DGLA AND USE OF SAME” (DS Biopharma Limited, priority 2016, published 2019).

This data set in a line: Phase 1 multiple-dose (28 days) plasma pharmacokinetics of free and total DGLA, incl. steady state. In kind it is in vivo, human. Conditions: for Peak Trough Fluctuation (PTF), free DGLA, mean: steady state Day 28 (0-24 hours); for Peak Trough Fluctuation (PTF), mean (Table 29, total DGLA): steady-state Day 28 (0-24 hours). How it is done: Multiple dose part two of the study comprised two cohorts (Cohorts five and six) of eight subjects each, who were administered multiple doses of study drug in the fasted state for 28 days. Subjects in Cohorts five and six received DS107G at 2000 or 4000 mg, respectively, or matching placebo once daily for 28 days. Cohort six was started after Cohort five's safety data were evaluated by the SMC. No interim analysis was planned. […]
In Part two of the study (Cohorts five and six), subjects were administered study drug (500-mg DS107G capsules or matching placebo capsules) once daily in the fasted state for 28 days. Subjects in Cohort five received study drug first and, if they tolerated the 2000-mg daily dose for the first 14 days, subjects in Cohort six were started on the 4000-mg daily dose for 28 days.
PK parameter was computed after correcting the dosed DGLA concentrations with baseline DGLA concentrations.

Setting [1] is: first value printed for the two dose cohorts (2000 mg assumed).
Where [2] appears, read: second value printed for the two dose cohorts (4000 mg assumed).

Each structure is given as a SMILES string.

As for `CCCCC/C=C\C/C=C\C/C=C\CCCCCCC(=O)O` [DGLA, Dihomo gamma linolenic acid], where the note is “2000 mg daily”, the “Mean accumulation ratio (AR) for AUC, free DGLA” value was about 3.3 and the “Mean accumulation ratio (AR) for Cmax, free DGLA” value is about 2.8. Where the note is “4000 mg daily”, the “Mean accumulation ratio (AR) for AUC, free DGLA” value is on record as about 1.6 and the “Mean accumulation ratio (AR) for Cmax, free DGLA” value is recorded as about 1.4. Where the note is “2000 and 4000 mg daily”, the “Time at which plasma concentrations reach steady-state (free and total DGLA)” value was about 14 days. For the setting “Day 1”, the “Mean baseline-corrected free DGLA AUC0-24, 4000 mg over 2000 mg dose” value is about 2.5 fold; the “Mean baseline-corrected free DGLA Cmax, 4000 mg over 2000 mg dose” value was about 3 fold; the “Mean baseline-corrected total DGLA AUC0-24, 4000 mg over 2000 mg dose” value was about 1.5 fold; the “Mean baseline-corrected total DGLA Cmax, 4000 mg over 2000 mg dose” value is given as about 1.5 fold. Under “Day 28”, the “Mean baseline-corrected free DGLA AUC0-24, 4000 mg over 2000 mg dose” value is listed as about 1.7 fold; the “Mean baseline-corrected free DGLA Cmax, 4000 mg over 2000 mg dose” value is recorded as about 1.4 fold; the “Mean baseline-corrected total DGLA AUC0-24, 4000 mg over 2000 mg dose” value is reported as about 1.4 fold; the “Mean baseline-corrected total DGLA Cmax, 4000 mg over 2000 mg dose” value was about 1.2 fold. Further, under “Days 1 and 28, 2000 and 4000 mg daily”, the “Time of peak mean concentration of free DGLA after dosing” value is reported as “about 4 hours”. In addition, for the setting “in vivo”, the “Increase of average concentration at steady state, free DGLA, dose doubled from 2000 to 4000 mg daily” value is 1.6 fold and the “Increase of average concentration at steady state, total DGLA, dose doubled from 2000 to 4000 mg daily” value was determined as 1.2 fold. Under setting [1], the “Peak Trough Fluctuation (PTF), free DGLA, mean” value was about 430% and the “Peak Trough Fluctuation (PTF), mean (Table 29, total DGLA)” value was 62.5%. Also, under setting [2], the “Peak Trough Fluctuation (PTF), free DGLA, mean” value was about 490% and the “Peak Trough Fluctuation (PTF), mean (Table 29, total DGLA)” value turned out to be 44.9%.
